Legend:
[1] = Photostability to UV light, first assay (IAA concentration by Salkwolski reagent); format: physicochemical
Procedure: For validating the formulation that guarantees photostability of the indoleacetic acid phytohormone, two procedures were carried out. In the first assay, the following was compared: i) synthetic IAA with water (with no protection from melanoidins); ii) synthetic IAA with the same culture medium used in the biological IAA production process of the present invention and iii) biological IAA; all samples being subjected to the sterilization process at 121° C. for approximately 1 hour, as claimed for the stabilization of indole compounds due to the production of melanoidins via Maillard reaction. After the period of time required for stabilization, IAA concentrations were assessed using Salkwolski reagent according to the methodology proposed by Glickmann and Dessaux (1994).

[2] = depending on the wavelength and intensity; cited from earlier work

Compound: O=C(O)Cc1c[nH]c2ccccc12 [indoleacetic acid]
- photodegradation ([1]; 1 hour of exposure to UV light, samples sterilized at 121° C. for approximately 1 hour): 74.5%
- degradation by UV light (in words) ([1]; after 4 hours of exposure to UV light): fully degraded

Compound: O=C(O)Cc1c[nH]c2ccccc12 [IAA, indoleacetic acid]
- reduction of IAA by light decomposition [2]: up to 90%

From patent US12721342B2, “Agricultural composition of indoleacetic acid having increased photostability, process for the production and use thereof” (TOTAL BIOTECNOLOGIA INDÚSTRIA E COMÉRCIO S/A, priority 2021, dated 2026)
